For this data set, the target named is T1, hBCRP (Homo sapiens, UniProt Q9UNQ0).
T1 construct: purchased GenoMembrane DNAIG03; host or cells: Sf9 insect cell membrane vesicles
T1 sequence (Q9UNQ0 1-655): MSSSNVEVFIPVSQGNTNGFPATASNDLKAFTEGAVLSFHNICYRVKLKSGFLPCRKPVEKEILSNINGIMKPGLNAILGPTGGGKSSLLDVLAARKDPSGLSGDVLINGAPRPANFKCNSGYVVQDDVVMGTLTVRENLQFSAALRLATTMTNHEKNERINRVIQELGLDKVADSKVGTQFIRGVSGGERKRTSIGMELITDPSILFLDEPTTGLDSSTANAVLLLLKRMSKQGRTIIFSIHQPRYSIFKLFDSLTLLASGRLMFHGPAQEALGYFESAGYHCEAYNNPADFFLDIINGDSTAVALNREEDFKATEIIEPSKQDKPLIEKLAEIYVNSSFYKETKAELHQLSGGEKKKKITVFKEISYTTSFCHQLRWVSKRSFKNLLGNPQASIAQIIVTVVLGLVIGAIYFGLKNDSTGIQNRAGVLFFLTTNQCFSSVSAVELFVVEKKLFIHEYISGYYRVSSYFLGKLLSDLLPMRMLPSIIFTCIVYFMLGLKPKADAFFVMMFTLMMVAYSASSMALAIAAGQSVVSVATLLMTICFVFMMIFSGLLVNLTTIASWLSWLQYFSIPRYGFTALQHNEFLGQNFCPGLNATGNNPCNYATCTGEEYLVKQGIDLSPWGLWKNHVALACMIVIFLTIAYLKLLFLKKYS
Briefly: Vesicular transport assay with sf9-BCRP vesicles (3H-ES). In kind it is in vitro ADME. Conditions: for Transport activity of BCRP (main text: percentage inhibition): negative control = 100%. The source says: Drug transporters mediate the cellular uptake and efflux of their substrates. Therefore, cell lines overexpressing a drug transporter can be utilized to investigate inhibitors of the transporter by assessing changes in substrate uptake. For each drug transporter, we selected a well-characterized inhibitor as the positive control. Radiolabeled substrates were used to indicate the decrease in transport efficiency when the drug transporters were inhibited by PDQ or the control inhibitors.
The concentrations of the control drugs and the substrates were stated in the assay details. Working solutions of the control inhibitors, the radiolabeled substrates, and each dose of PDQ were prepared at 200 times (200×) more concentrated solutions with DMSO for further dilution.
Transporter-overexpressed cell lines. Human organic anion transporter-overexpressed cell lines MDCKII-OAT1 and S2-OAT3, human organic anion transport polypeptide-overexpressed cell lines HEK293A-OATP1B1 and HEK293A-OATP1B3, human organic cation transporter 2-overexpressed cell line S2-OCT2, and human multi-drug resistance protein MDR1 (or P-gp)-overexpressed cell line MDCKII-MDR1 were gifts from Japan Fuji Biomedical Co., Ltd. (Fuji, Shizuoka Prefecture, Japan). Breast cancer resistance protein-overexpressed vesicles (sf9-BCRP vesicle) were purchased from GenoMembrane Co., Ltd. (Yokohama, Kanagawa, Japan).
Vesicular transport assay with the sf9-BCRP model. Vesicular transport assay was conducted to measure the interaction between PDQ and the efflux transporter BCRP, using sf9-BCRP vesicles (Cat. No, DNAIG03, GenoMembrane, Yokohama, Kanagawa, Japan). The modulation of ^3H-ES transport reflects the level of the drug-transporter interaction.
The MgATP working solution was prepared by diluting the 200 mM stock solution with the transport buffer, while the reduced glutathione solution was made by dissolving glutathione (0.615 g) in 8 mL deionized water and adjusting the pH to 6.8 with 2M NaOH. The drug solution in the reaction mix was replaced with […] of transport buffer as the negative control mix. These reaction mixes were pre-incubated at 37 °C before use. All reagents were thawed on ice, and deionized water was used for the preparation.
The membrane suspension was gently mixed with ice-cold transport buffer and aliquoted to 1.5 mL centrifuge tubes on ice. Each tube contained […] of vesicles ([…] BCRP) and […] of transport buffer. The vesicle-containing tubes were pre-incubated at 37 °C for 5 min. Then, the reaction mixes were added to the tubes to initiate the assay. To terminate the reaction after 5 min, […] of washing buffer (40 mM MOPS-Tris and 70 mM KCl) was added to each tube on ice. The samples were then transferred to the filter and filtered. The filters were washed with 5 mL of cold washing buffer three times. Subsequently, the filters were placed at the bottom of the counting vials, and the scintillation cocktail was added. The filter and the cocktail were vigorously vortexed to mix. The remaining radiation in the samples was then measured with the scintillation counter. Each sample was replicated three times (N = 3).
In = [100 × (U − U0)/(Uc − U0)]%(3)
The results were expressed as mean ± standard deviation (SD) and analyzed with GraphPad Prism 8.0 software (CA, USA). The IC50 of PDQ was curve-fitted with the FORECAST function. Statistical significance was calculated using a two-tailed test, and a p value < 0.05 was considered as significant.

As for `CC(C)(O)[C@@H]1CC[C@@](C)([C@H]2CC[C@]3(C)[C@@H]2[C@H](O)C[C@@H]2[C@@]4(C)CC[C@H](O)C(C)(C)[C@@H]4CC[C@]23C)O1` [PDQ, (20S,24S)-dammar-20,24-epoxy-3β, 12β, 25-triol], the “DPM (3H-ES transport by BCRP)” value was 5303.7±176.6 DPM (inhibitor 0.1 μM); 2995.3±288.8 DPM (inhibitor 0.3 μM); 2788.3±479.5 DPM (inhibitor 1 μM); 2352.7±355.1 DPM (inhibitor 3 μM); 1997.3±185.1 DPM (inhibitor 10 μM); 1911.0±179.5 DPM (inhibitor 30 μM). Further, the “Transport activity of BCRP (main text: percentage inhibition)” value by setting is: (inhibitor 0.1 μM) 96.1±3.2%; (inhibitor 0.3 μM) 54.3±5.2%; (inhibitor 1 μM) 50.5±8.7%; (inhibitor 3 μM) 42.7±6.4%; (inhibitor 10 μM) 36.2±3.4%. In addition, the midpoint of inhibition (sf9-BCRP vesicles, 3H-ES 1 µM, 5 min), the IC50, lay at 1080 nM.

(Values after paper PMC11173382, “In Vitro Investigations into the Potential Drug Interactions of Pseudoginsenoside DQ Mediated by Cytochrome P450 and Human Drug Transporters” (Molecules, 2024).)
